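Where inhibition never reached the appropriate level, the endpoint shown equals the highest concentration tested. Otherwise, values were interpolated linearly from a five-concentration, 48-hour dose response in 96-well plates. The concentration for 50% growth inhibition is given as GI50. TGI marks complete inhibition of growth.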
Assays:
Assay in all cases: DTP human tumour cell line panel, 48 h
[1] = system: SK-MEL-2 melanoma
[2] = system: MDA-MB-435
[3] = system: MCF7 breast
[4] = system: T-47D breast
[5] = system: NCI-H522 lung
[6] = system: HCC-2998 colon
[7] = system: MDA-MB-231 breast
[8] = system: OVCAR-3 ovarian
[9] = system: 786-0 renal
[10] = system: K-562 leukemia
[11] = system: DU-145 prostate
[12] = system: RXF 393 renal
[13] = system: OVCAR-8 ovarian
[14] = system: SNB-19 CNS
[15] = system: A549 NSCLC
[16] = system: BT-549 breast
[17] = system: HL-60(TB) leukemia
[18] = system: SF-539 CNS
[19] = system: SK-OV-3 ovarian
[20] = system: MOLT-4 leukemia
[21] = system: CAKI-1 renal
[22] = system: HT29 colon
[23] = system: ACHN renal
[24] = system: OVCAR-5 ovarian
[25] = system: U251 CNS
[26] = system: SF-295 CNS
[27] = system: NCI-H23 lung
[28] = system: RPMI-8226 leukemia
[29] = system: NCI-H226 lung
[30] = system: HCT-15 colon
[31] = system: IGROV1 ovarian
[32] = system: SK-MEL-5 melanoma
[33] = system: MALME-3M melanoma
[34] = system: HCT-116 colon
[35] = system: CCRF-CEM leukemia
[36] = system: NCI/ADR-RES ovarian
[37] = system: HOP-62 NSCLC
[38] = system: OVCAR-4 ovarian
[39] = system: EKVX NSCLC
[40] = system: UACC-257 melanoma
[41] = system: SF-268 CNS
[42] = system: NCI-H460 lung
[43] = system: UACC-62 melanoma
[44] = system: UO-31 renal
[45] = system: PC-3 prostate
[46] = system: KM12 colon
[47] = system: SK-MEL-28 melanoma
[48] = system: SR leukemia
[49] = system: SNB-75 CNS
[50] = system: TK-10 renal
[51] = system: COLO 205 colon
[52] = system: LOX IMVI melanoma
[53] = system: SN12C renal
[54] = system: A498 renal
[55] = system: M14 melanoma
[56] = system: HS 578T breast
[57] = system: SW-620 colon

CCOCC1(COCC)CCC(c2[nH]ncc2CN(C)CCNC)CC1
GI50 [1]: > 100 µM | TGI [1]: > 100 µM | GI50 [2]: > 100 µM | TGI [2]: > 100 µM | GI50 [3]: > 100 µM | TGI [3]: > 100 µM | GI50 [4]: > 100 µM | TGI [4]: > 100 µM | GI50 [5]: > 100 µM | TGI [5]: > 100 µM | GI50 [6]: > 100 µM | TGI [6]: > 100 µM | GI50 [7]: > 100 µM | TGI [7]: > 100 µM | GI50 [8]: > 100 µM | TGI [8]: > 100 µM | GI50 [9]: > 100 µM | TGI [9]: > 100 µM | GI50 [10]: 28.8 µM | TGI [10]: > 100 µM | GI50 [11]: > 100 µM | TGI [11]: > 100 µM | GI50 [12]: 65.2 µM | TGI [12]: > 100 µM | GI50 [13]: > 100 µM | TGI [13]: > 100 µM | GI50 [14]: > 100 µM | TGI [14]: > 100 µM | GI50 [15]: > 100 µM | TGI [15]: > 100 µM | GI50 [16]: > 100 µM | TGI [16]: > 100 µM | GI50 [17]: > 100 µM | TGI [17]: > 100 µM | GI50 [18]: > 100 µM | TGI [18]: > 100 µM | GI50 [19]: > 100 µM | TGI [19]: > 100 µM | GI50 [20]: > 100 µM | TGI [20]: > 100 µM | GI50 [21]: > 100 µM | TGI [21]: > 100 µM | GI50 [22]: 33.3 µM | TGI [22]: > 100 µM | GI50 [23]: > 100 µM | TGI [23]: > 100 µM | GI50 [24]: > 100 µM | TGI [24]: > 100 µM | GI50 [25]: > 100 µM | TGI [25]: > 100 µM | GI50 [26]: > 100 µM | TGI [26]: > 100 µM | GI50 [27]: > 100 µM | TGI [27]: > 100 µM | GI50 [28]: 19.8 µM | TGI [28]: > 100 µM | GI50 [29]: > 100 µM | TGI [29]: > 100 µM | GI50 [30]: > 100 µM | TGI [30]: > 100 µM | GI50 [31]: > 100 µM | TGI [31]: > 100 µM | GI50 [32]: > 100 µM | TGI [32]: > 100 µM | GI50 [33]: > 100 µM | TGI [33]: > 100 µM | GI50 [34]: > 100 µM | TGI [34]: > 100 µM | GI50 [35]: > 100 µM | TGI [35]: > 100 µM | GI50 [36]: > 100 µM | TGI [36]: > 100 µM | GI50 [37]: > 100 µM | TGI [37]: > 100 µM | GI50 [38]: > 100 µM | TGI [38]: > 100 µM | GI50 [39]: > 100 µM | TGI [39]: > 100 µM | GI50 [40]: > 100 µM | TGI [40]: > 100 µM | GI50 [41]: > 100 µM | TGI [41]: > 100 µM | GI50 [42]: > 100 µM | TGI [42]: > 100 µM | GI50 [43]: > 100 µM | TGI [43]: > 100 µM | GI50 [44]: > 100 µM | TGI [44]: > 100 µM | GI50 [45]: 59.4 µM | TGI [45]: > 100 µM | GI50 [46]: > 100 µM | TGI [46]: > 100 µM | GI50 [47]: > 100 µM | TGI [47]: > 100 µM | GI50 [48]: 23.7 µM | TGI [48]: > 100 µM | GI50 [49]: 41.4 µM | TGI [49]: > 100 µM | GI50 [50]: > 100 µM | TGI [50]: > 100 µM | GI50 [51]: > 100 µM | TGI [51]: > 100 µM | GI50 [52]: > 100 µM | TGI [52]: > 100 µM | GI50 [53]: > 100 µM | TGI [53]: > 100 µM | GI50 [54]: 8.25 µM | TGI [54]: > 100 µM | GI50 [55]: > 100 µM | TGI [55]: > 100 µM | GI50 [56]: > 100 µM | TGI [56]: > 100 µM | GI50 [57]: > 100 µM | TGI [57]: > 100 µM

Source: PubChem BioAssay (NCI)
